Molecules are shown by their SMILES. ± gives the expanded uncertainty stated by the source.

For series [1] the following is noted: Crystal; DTA.
Series [2] is described as follows: Molar enthalpy of transition or fusion. The settings on record: Crystal; DSC.

In the case of `O=C(O)/C=C/C(=O)O.OCCOCCN1CCN(C2=Nc3ccccc3Sc3ccccc32)CC1.OCCOCCN1CCN(C2=Nc3ccccc3Sc3ccccc32)CC1` [quetiapine fumarate], in series [1], the Normal melting temperature turned out to be 173.47 ± 0.61 °C. The “Molar enthalpy of transition or fusion” value in series [2] was determined as 17.8 ± 0.478 kcal/mol.

The values above are taken from the NIST ThermoML archive (doi:10.1021/acs.jced.7b00518).
